What was measured:
Type in all cases: cell-based
[1] = tested on: Swiss albino mouse fibroblast cells (3T3); assay: CLSM experiment: intracellular delivery of fluorescent probes
Protocol: Subconfluent Swiss albino mouse fibroblast cells (3T3) were grown in Dulbeco's Modified Eagles Medium (DMEM) on coverslips in wells of 3.5 cm in diameter for Confocal Laser Scanning Microscopy (CLSM) and in six-well plastic plates for flow cytometric analysis. The cells were washed twice with phosphate buffered saline (PBS), adjusted to 37° C. in the incubator, and washed again. Two ml of PBS were added to each well and 50 μl of the test solution was added (Compositions I-III, control systems A-B or any compositions containing PC*, RR or D-289 listed above). […] The coverslip were observed under a Sarastro-Phibos1000 CLS microscope equipped with a 488 nm argon ion laser beam and attached to a Universal Zeiss epifluorescence microscopy with an oil immerse Planapo 63×1.4 NA objective lens. Fluorescence emission was detected above 560 nm for RR, at 527 nm for D-289 and […] for calcein.

[2] = tested on: Bacillus Subtilis ATCC-6633; assay: Susceptibility testing, zone of inhibition on agar; settings: 37° C., 24 h
Protocol: (§1) Various concentrations of erythromycin in sterile water (1.25, 7.5, 10, 12.5 μg/ml) The bacterial strains used were:
(§2) Each erythromycin concentration was mixed with Composition I, Composition II and Standard solution with phosphate buffer saline (PBS, Biological Industries, Beit HaEmek Israel 1:1 by volume. 20 μl of Compositions I-II and standards containing various antibiotic concentrations was added to 6 mm wells on Petri plates containing Tryptic Soy Agar (TSA) inoculated with the microorganisms. The preparation was incubated aerobically at 37° C. for 24 h. The zone of inhibition for each sample was measured.

[3] = tested on: Staphylococcus Aureus ATCC-29213; assay: Susceptibility testing, zone of inhibition on agar; settings: 37° C., 24 h, in mm
Protocol: as §1, §2

[4] = tested on: Staphylococcus Aureus erythromycin resistant (clinical strain); assay: Susceptibility testing, zone of inhibition on agar; settings: 37° C., 24 h
Protocol: as §1, §2

[5] = Erythromycin conc. 10 microgram/ml

`CCN(CC)c1ccc(C=Cc2cc[n+](C)cc2)cc1.[I-]` [Composition D-289, 4-(4-diethylamino)styryl-N-methylpyridinium iodode] was tested, and the “Fluorescence in the nucleus of the cell” value [1] was “fluorescence was also observed in the nucleus”.

With `CC[C@H]1OC(=O)[C@H](C)[C@@H](O[C@H]2C[C@@](C)(OC)[C@@H](O)[C@H](C)O2)[C@H](C)[C@@H](O[C@@H]2O[C@H](C)C[C@H](N(C)C)[C@H]2O)[C@](C)(O)C[C@@H](C)C(=O)[C@H](C)[C@@H](O)[C@]1(C)O` [Standard, Erythromycin] the zone of inhibition at 1.25 µg/mL ([2]; ATCC6633, Erythromycin conc. 1.25 microgram/ml) was 7.83 ± 0.26 mm, the zone of inhibition at 7.5 µg/mL ([2]; ATCC6633, Erythromycin conc. 7.5 microgram/ml) was 13.6 ± 0.38 mm and the Zone of inhibition ([3]; Erythromycin conc. 1.25 microgram/ml) was 0. The Zone of inhibition [3, 5] was 13.67 ± 026, the zone of inhibition at 10 µg/mL [4, 5] was 0 mm and the zone of inhibition at 12.5 µg/mL ([4]; Erythromycin conc. 12.5 microgram/ml) was 7.67 ± 0.26 mm.

Source: patent US20100298420A1, “Compositions and Methods for Intracellular Delivery” (Yissum, Research Development Company of the Hebrew …, priority 2001, published 2010)
